From ChEMBL document CHEMBL3585328, “Colloidal and antibacterial properties of novel triple-headed, double-tailed amphiphiles: exploring structure-activity relationships and synergistic mixtures” (Bioorg Med Chem, 2015)
In brackets after ≈: the same amount, converted by molar mass. Activity calls are given as the source filed them. The calls are words filed in the database; no cut-off is given here.

What was measured:
Streptococcus agalactiae [1] = assay: Bactericidal activity against Streptococcus agalactiae J48 assessed as inhibition of bacterial growth incubated for 72 hrs followed by culture growth in Todd-Hewitt agar medium and incubated for 24 hrs at 37 degC; format: functional, organism-based
Enterococcus faecalis [2] = assay: Bactericidal activity against Enterococcus faecalis ATCC 29212 assessed as inhibition of bacterial growth incubated for 72 hrs followed by culture growth in Todd-Hewitt agar medium and incubated for 24 hrs at 37 degC; format: functional, organism-based
Streptococcus agalactiae [3] = assay: Antibacterial activity against Streptococcus agalactiae J48 assessed as inhibition of bacterial growth incubated for 72 hrs by CLSI based method; format: functional; conditions: J48, 72 h
Bacillus cereus [4] = assay: Antibacterial activity against Bacillus cereus assessed as inhibition of bacterial growth incubated for 72 hrs by CLSI based method; format: functional
Pseudomonas aeruginosa [5] = assay: Antibacterial activity against Pseudomonas aeruginosa ATCC 27853 assessed as inhibition of bacterial growth incubated for 72 hrs by CLSI based method; format: functional; conditions: ATCC 27853, 72 h
Escherichia coli [6] = assay: Antibacterial activity against Escherichia coli ATCC 25922 assessed as inhibition of bacterial growth incubated for 72 hrs by CLSI based method; format: functional; conditions: ATCC 25922, 72 h
Enterococcus faecalis [7] = assay: Antibacterial activity against Enterococcus faecalis ATCC 29212 assessed as inhibition of bacterial growth incubated for 72 hrs by CLSI based method; format: functional; conditions: ATCC 29212, 72 h
Escherichia coli [8] = assay: Bactericidal activity against Escherichia coli ATCC 25922 assessed as inhibition of bacterial growth incubated for 72 hrs followed by culture growth in Todd-Hewitt agar medium and incubated for 24 hrs at 37 degC; format: functional, organism-based
Staphylococcus aureus [9] = assay: Bactericidal activity against Staphylococcus aureus subsp. aureus ATCC 29213 assessed as inhibition of bacterial growth incubated for 72 hrs followed by culture growth in Todd-Hewitt agar medium and incubated for 24 hrs at 37 degC; format: functional, organism-based
Pseudomonas aeruginosa [10] = assay: Bactericidal activity against Pseudomonas aeruginosa ATCC 27853 assessed as inhibition of bacterial growth incubated for 72 hrs followed by culture growth in Todd-Hewitt agar medium and incubated for 24 hrs at 37 degC; format: functional, organism-based
Staphylococcus aureus [11] = assay: Antibacterial activity against Staphylococcus aureus subsp. aureus ATCC 29213 assessed as inhibition of bacterial growth incubated for 72 hrs by CLSI based method; format: functional; conditions: ATCC 29213, 72 h
Bacillus cereus [12] = assay: Bactericidal activity against Bacillus cereus assessed as inhibition of bacterial growth incubated for 72 hrs followed by culture growth in Todd-Hewitt agar medium and incubated for 24 hrs at 37 degC; format: functional, organism-based
[13] = Critical aggregation concentration by at 37 degC isothermal titration calorimetry method; format: ADME

| SMILES | MIC (Streptococcus agalactiae [3]) [µM] | MIC (Bacillus cereus [4]) [µM] | MIC (Pseudomonas aeruginosa [5]) [µM] | MIC (Escherichia coli [6]) [µM] | MIC (Enterococcus faecalis [7]) [µM] | MIC (Staphylococcus aureus [11]) [µM] | CAC [13] [mM] | Activity (Streptococcus agalactiae [1]) | Activity (Enterococcus faecalis [2]) | Activity (Escherichia coli [8]) | Activity (Staphylococcus aureus [9]) | Activity (Pseudomonas aeruginosa [10]) | Activity (Bacillus cereus [12]) |
| --- | --- | --- | --- | --- | --- | --- | --- | --- | --- | --- | --- | --- | --- |
| CCCCCCCCCCCC[N+](C)(C)Cc1cc(C[N+](C)(C)C)cc(C[N+](C)(C)CCCCCCCCCCCC)c1.[Br-].[Br-].[Br-] | 2 | 2 | 16 | 4 | 2 | 2 | 2.5 | Active | Active | Active | Active | Active | Active |
| CCCCCCCCCC[N+](C)(C)Cc1cc(C[n+]2ccccc2)cc(C[N+](C)(C)CCCCCCCCCC)c1.[Br-].[Br-].[Br-] | 8 | 8 | 63 | 16 | 8 | 2 | 14 | Active | Active | Active | Active | Active | Active |
| CCCCCCCCCCCCCCCC[N+](C)(C)Cc1cc(C[n+]2ccccc2)cc(C[N+](C)(C)CCCCCCCCCCCCCCCC)c1.[Br-].[Br-].[Br-] | > 250 | > 250 | > 250 | > 250 | > 250 | > 250 | 0.18 | Active | Active | Active | Active | Active | Active |
| CCCCCCCCCCCCCC[N+](C)(C)Cc1cc(C[n+]2ccccc2)cc(C[N+](C)(C)CCCCCCCCCCCCCC)c1.[Br-].[Br-].[Br-] | 4 | 8 | 63 | 16 | 4 | 4 | 0.6 | Active | Active | Active | Active | Active | Active |
| CCCCCCCCCCCCCCCC[N+](C)(C)Cc1cc(C[N+](C)(C)C)cc(C[N+](C)(C)CCCCCCCCCCCCCCCC)c1.[Br-].[Br-].[Br-] | 8 | 16 | > 250 | 63 | 32 | 16 | 0.16 | Active | Active | Active | Active | Active | Active |
| CCCCCCCC[N+](C)(C)Cc1cc(C[n+]2ccccc2)cc(C[N+](C)(C)CCCCCCCC)c1 | > 250 | > 250 | > 250 | > 250 | > 250 | > 250 |  | Active | Active | Active | Active | Active | Active |
| CCCCCCCCCCCC[N+](C)(C)Cc1cc(C[n+]2ccccc2)cc(C[N+](C)(C)CCCCCCCCCCCC)c1.[Br-].[Br-].[Br-] | 1 | 2 | 8 | 4 | 2 | 2 | 2.4 | Active | Active | Active | Active | Active | Active |

Further lines, with some results ahead:

| MIC (Streptococcus agalactiae [3]) [µM] | MIC (Bacillus cereus [4]) [µM] | MIC (Pseudomonas aeruginosa [5]) [µM] | MIC (Escherichia coli [6]) [µM] | MIC (Enterococcus faecalis [7]) [µM] | MIC (Staphylococcus aureus [11]) [µM] | CAC [13] [mM] | SMILES | Activity (Streptococcus agalactiae [1]) | Activity (Enterococcus faecalis [2]) | Activity (Escherichia coli [8]) | Activity (Staphylococcus aureus [9]) | Activity (Pseudomonas aeruginosa [10]) | Activity (Bacillus cereus [12]) |
| --- | --- | --- | --- | --- | --- | --- | --- | --- | --- | --- | --- | --- | --- |
| 4 | 8 | > 250 | 125 | 8 | 16 | 12 | CCCCCCCCCC[N+](C)(C)Cc1cc(C[N+](C)(C)C)cc(C[N+](C)(C)CCCCCCCCCC)c1.[Br-].[Br-].[Br-] | Active | Active | Active | Active | Active | Active |
| > 250 | > 250 | > 250 | > 250 | > 250 | > 250 |  | CCCCCCCC[N+](C)(C)Cc1cc(C[N+](C)(C)C)cc(C[N+](C)(C)CCCCCCCC)c1 | Active | Active | Active | Active | Active | Active |
|  |  | 6.4 (≈ 2.99 µg/mL) |  |  |  |  | NC[C@H]1O[C@H](O[C@H]2[C@H](O)[C@@H](O[C@H]3O[C@H](CO)[C@@H](O)[C@H](N)[C@H]3O)[C@H](N)C[C@@H]2N)[C@H](N)C[C@@H]1O [TOBRAMYCIN] |  |  |  |  |  |  |
| 2 | 4 | 125 | 8 | 4 | 4 | 0.61 | CCCCCCCCCCCCCC[N+](C)(C)Cc1cc(C[N+](C)(C)C)cc(C[N+](C)(C)CCCCCCCCCCCCCC)c1.[Br-].[Br-].[Br-] | Active | Active | Active | Active | Active | Active |
